Assays:
Stromelysin [1] = molecular target: T1, Stromelysin (Homo sapiens, UniProt P08254); assay: Isothermal denaturation of stromelysin monitored by SYPRO Orange fluorescence; type: binding; details: 75° C.
T1 construct: made in house
Procedure: Time-Dependency of the isothermal denaturation of Stromelysin monitored by SYPRO Orange Fluorescence. […] The data for the control reaction were analyzed using Equation 4, and those for the inhibited reactions with Equation 11. […] The solid lines represent the theoretical fits to the experimental data points.
The time-dependencies of the fluorescence of extrinsic dyes during isothermal denaturation were monitored as follows. The test dye was added to a stirred cuvette containing 2 milliliters (mL) of buffer that had been thermally preequilibrated at the desired temperature. A dye baseline was recorded for 45 seconds and the denaturation reaction initiated by the addition of a small aliquot of the protein stock solution. In this way, the protein reached the temperature of denaturation virtually instantaneously. In separate experiments, the protein was kept at the denaturation temperature in the absence of dye and the reporter molecule added at the end of the reaction. In the latter experiments, the fluorescence increase associated with the addition of dye was always instantaneous.
Two parameters derived from the fluorescence kinetic curves measure the rate of denaturation, namely, the slope at the inflection point, and the first-order rate constant.

Stromelysin [2] = molecular target: T1, Stromelysin; assay: Isothermal denaturation of stromelysin monitored by UV absorbance (hyperchromicity at 280 nm); type: binding; details: 75° C.; absorbance at 280 nm
Procedure: Sci., 7; 2118-2126 (1998).
UV absorbance was measured using a Perkin-Elmer Lambda 40 UV-Vis dual-beam spectrophotometer (Perkin-Elmer Corp. Norwalk, Conn.). A capped 1.0 cm pathlength quartz cuvette filled with buffer was placed in the reference beam. In the sample beam, a capped 1.0 cm path length quartz cuvette containing 1.5 mL of degassed buffer or buffer plus ligand—less the volume of protein solution to be added—was placed in a thermostated cell holder and equilibrated at the temperature of isothermal denaturation. The temperature was maintained within 0.1° C. using a Neslab Exacal EX200 circulating water bath (Neslab Instruments, Inc. Portsmouth, N.H.). A 1-5 μL aliquot of the protein stock solution was added to the cuvette containing buffer or buffer plus ligand to yield a final volume of 1.5 mL and protein concentration near 0.5 μM. The cuvette was recapped and absorbance at 280 nm was measured every 1 second for up to 30 minutes with a bandwidth of 2 nm and response of 0.5 second. For each protein, the effects of several ligand concentrations were examined ranging from about 0.5 μM to about 400 μM. Cuvettes were thoroughly cleaned as described above with nitric acid and with 10% methanol and rinsed with distilled water and ethanol between experiments.
Absorbance. […]

[3] = molecular target: T2, S. aureus thymidylate kinase (TK) (Staphylococcus aureus, UniProt P65248); assay: biochemical; type: binding
T2 construct: 6-his tag; made in house
T2 sequence (P65248 whole entry): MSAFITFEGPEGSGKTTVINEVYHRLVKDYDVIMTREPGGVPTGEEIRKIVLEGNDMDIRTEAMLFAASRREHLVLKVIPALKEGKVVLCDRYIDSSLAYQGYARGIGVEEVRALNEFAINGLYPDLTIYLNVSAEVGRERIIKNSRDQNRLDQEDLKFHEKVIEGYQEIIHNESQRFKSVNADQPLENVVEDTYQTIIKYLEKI

uridylate kinase (UK) = molecular target: T3, uridylate kinase (UK) (Staphylococcus aureus, UniProt Q2FZ22); assay: Uridylate kinase activity assay at 25° C.; type: biochemical, S. aureus; details: read-out: apparent Kd obtained from an activity assay
T3 construct: 6-his tag (implied by Ni-NTA purification); made in house
T3 sequence (Q2FZ22 1-240): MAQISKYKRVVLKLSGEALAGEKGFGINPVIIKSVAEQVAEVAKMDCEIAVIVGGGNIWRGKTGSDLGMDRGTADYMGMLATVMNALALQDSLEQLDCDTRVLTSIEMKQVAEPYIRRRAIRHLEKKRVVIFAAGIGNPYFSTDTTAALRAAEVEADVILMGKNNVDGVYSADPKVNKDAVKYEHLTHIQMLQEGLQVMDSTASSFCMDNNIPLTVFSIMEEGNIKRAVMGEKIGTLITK

[4] = molecular target: T4, S. aureus uridylate kinase (UK) (Staphylococcus aureus, UniProt Q2FZ22); assay: Robotic HTS isothermal denaturation assay, uridylate kinase, Nano Orange
T4 sequence (Q2FZ22 1-240): T3 sequence (Q2FZ22 1-240)
Text: Temperature was controlled with a circulating waterbath.
Validation of Robotic HTS Assay.

T1 sequence (P08254 100-264 limits assumed): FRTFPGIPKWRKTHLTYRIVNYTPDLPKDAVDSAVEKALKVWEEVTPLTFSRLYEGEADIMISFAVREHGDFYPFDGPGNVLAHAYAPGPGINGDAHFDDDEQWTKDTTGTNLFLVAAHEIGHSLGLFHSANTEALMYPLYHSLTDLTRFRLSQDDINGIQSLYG

With CNC(=O)[C@H](Cc1ccc(O)cc1)NC(=O)Nc1n[nH]c(=S)s1 [PNU-143988] the “effect on denaturation of stromelysin” value (Stromelysin [1]) was “inhibited in a dose-dependent manner” and the “effect on hyperchromicity changes” value (Stromelysin [2]) was “dose-dependent inhibition of both the rate and magnitude”.
For Cc1cn([C@H]2C[C@H](O)[C@@H](COP(=O)(O)O)O2)c(=O)[nH]c1=O [TMP, Thymidine monophosphate], the Kd ([3]; Kd calculated from the rate constants) was 7.6 ± 0.8 mM and the Kd ([3]; Kd calculated from the slopes) was 9.1 ± 1.6 mM.
With O=c1ccn([C@@H]2O[C@H](COP(=O)(O)O)[C@@H](O)[C@H]2O)c(=O)[nH]1 [UMP, uridine monophosphate] the Kd (uridylate kinase (UK)) was 1 mM, the Kd [4] was 5.76 ± 0.95 mM and the effect on denaturation ([4]; 41° C., 96-well microplate, robotic) was “concentration-dependent”.

Reference: patent publication US6713260B2, “Methods of identifying compounds that bind to target species under isothermal denaturing conditions” (Pharmacia & Upjohn Company, priority 1999, dated 2004)
